Among the data in patent publication US7902238B2, “2-aminooxazolines as TAAR1 ligands” (Hoffmann-La Roche Inc., priority 2007, dated 2011) are Kd and Ki values, retold here.

In one assay the target is TAAR1. The assay can be described thus: Calculated Kd of the radioligand used in the TAAR1 binding assay. The conditions noted are these: species not stated. As to the method: Each experiment was performed in duplicate.
The target in another assay is mouse TAAR1 (Mus musculus, UniProt Q923Y8). The assay can be described thus: Radioligand binding on membranes of HEK293 cells stably expressing mouse TAAR1.
Sequence of mouse TAAR1 (Q923Y8 whole entry): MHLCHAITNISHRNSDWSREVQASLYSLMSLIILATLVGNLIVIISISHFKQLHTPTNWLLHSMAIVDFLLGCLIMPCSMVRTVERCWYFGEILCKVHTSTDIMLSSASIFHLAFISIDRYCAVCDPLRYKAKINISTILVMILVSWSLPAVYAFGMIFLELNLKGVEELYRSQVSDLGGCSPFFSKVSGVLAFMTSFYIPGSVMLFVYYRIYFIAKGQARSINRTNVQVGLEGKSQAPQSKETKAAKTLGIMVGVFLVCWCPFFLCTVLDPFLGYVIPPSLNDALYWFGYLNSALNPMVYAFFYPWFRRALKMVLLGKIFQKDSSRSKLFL
Another assay deals with rat TAAR1 (Rattus norvegicus, UniProt Q923Y9). The assay can be described thus: Radioligand binding on membranes of HEK293 cells stably expressing rat TAAR1.
Sequence of rat TAAR1 (Q923Y9 whole entry): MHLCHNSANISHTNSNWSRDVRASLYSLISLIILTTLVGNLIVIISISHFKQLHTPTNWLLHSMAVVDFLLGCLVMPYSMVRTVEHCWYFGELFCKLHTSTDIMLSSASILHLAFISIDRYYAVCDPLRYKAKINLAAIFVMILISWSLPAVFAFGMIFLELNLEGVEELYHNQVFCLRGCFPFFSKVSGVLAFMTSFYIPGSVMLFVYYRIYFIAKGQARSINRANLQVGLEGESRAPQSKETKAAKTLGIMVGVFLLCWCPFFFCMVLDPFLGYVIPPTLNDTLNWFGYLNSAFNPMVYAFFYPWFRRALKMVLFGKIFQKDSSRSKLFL

Each structure is given as a SMILES string. pKd, pKi: −log10 of the molar value.

The pKd is the Kd on a negative log10 scale, so that one unit is a factor of ten. Broadly, the pKi is the Ki on a negative log10 scale, so that one unit is a factor of ten. A lower pKi goes with a large Ki.

`c1ccc2c(c1)CCCC2C1=NCCN1` (racemic): the pKd on TAAR1 was 7.22. In the case of `CN(C[C@H]1COC(N)=N1)c1ccc(Cl)cc1F` [Example 100, (S)-4-{[(4-Chloro-2-fluoro-phenyl)-methyl-amino]-methyl}-4,5-dihydro-oxazol-2-ylamine], the pKi on mouse TAAR1 is 8.57; on rat TAAR1 it was 8.52. Regarding `CCN(C[C@H]1COC(N)=N1)c1ccc(Cl)cc1` [Example 11, (S)-4-{[(4-Chloro-phenyl)-ethyl-amino]-methyl}-4,5-dihydro-oxazol-2-ylamine], the pKi at mouse TAAR1 is 8.46; on rat TAAR1, 9.05. As to `CCN(C[C@H]1COC(N)=N1)c1ccccc1Cl` [Example 111, (S)-4-{[(2-Chloro-phenyl)-ethyl-amino]-methyl}-4,5-dihydro-oxazol-2-ylamine], the figures for the pKi at mouse TAAR1 and on rat TAAR1 were 8.22 and 7.23, respectively.

As to `CN(C[C@H]1COC(N)=N1)c1cccc(-c2cnco2)c1` [Example 105, (S)-4-{[Methyl-(3-oxazol-5-yl-phenyl)-amino]-methyl}-4,5-dihydro-oxazol-2-ylamine], the pKi at mouse TAAR1 is 8.42; at rat TAAR1, 7.20. As to `CN(C[C@@H]1COC(N)=N1)c1ccc(Cl)cc1` [Example 125, (R)-4-{[(4-Chloro-phenyl)-methyl-amino]-methyl}-4,5-dihydro-oxazol-2-ylamine], the pKi on mouse TAAR1 was 8.64; at rat TAAR1, 8.25.

As to `NC1=N[C@@H](CNc2ccc(C(F)(F)F)c(F)c2)CO1` [Example 127, (S)-4-[(3-Fluoro-4-trifluoromethyl-phenylamino)-methyl]-4,5-dihydro-oxazol-2-ylamine], the results for the pKi on mouse TAAR1 and at rat TAAR1 were 8.34 and 7.80, respectively. As to `CCN(C[C@H]1COC(N)=N1)c1ccc(C(F)(F)F)cc1` [Example 133, (S)-4-{[Ethyl-(4-trifluoromethyl-phenyl)-amino]-methyl}-4,5-dihydro-oxazol-2-ylamine], the pKi was 8.38 on mouse TAAR1 and 8.31 on rat TAAR1. For `CCN(C[C@H]1COC(N)=N1)c1ccc(Cl)c(OC)c1` [Example 28, (S)-4-{[(4-Chloro-3-methoxy-phenyl)-ethyl-amino]-methyl}-4,5-dihydro-oxazol-2-ylamine] the same measures were 8.64 and 9.22. For `COc1cc(N(Cc2ccccc2)C[C@H]2COC(N)=N2)ccc1F` [Example 42, (S)-4-{[Benzyl-(4-fluoro-3-methoxy-phenyl)-amino]-methyl}-4,5-dihydro-oxazol-2-ylamine], the pKi on mouse TAAR1 is 7.58; at rat TAAR1, 8.96.

For `NC1=N[C@@H](CNc2ccc(F)cc2F)CO1` [Example 152, (S)-4-[(2,4-Difluoro-phenylamino)-methyl]-4,5-dihydro-oxazol-2-ylamine], the pKi was 8.49 on mouse TAAR1 and 8.14 at rat TAAR1.

Turning to `CN(C[C@H]1COC(N)=N1)c1ccccc1` [Example 30, (S)-4-[(Methyl-phenyl-amino)-methyl]-4,5-dihydro-oxazol-2-ylamine], the pKi at mouse TAAR1 was 7.79; on rat TAAR1 it was 8.77. For the compound `CCN(C[C@H]1COC(N)=N1)c1ccc(F)cc1F` [Example 145, (S)-4-{[(2,4-Difluoro-phenyl)-ethyl-amino]-methyl}-4,5-dihydro-oxazol-2-ylamine], the values for the pKi on mouse TAAR1 and at rat TAAR1 were 8.09 and 8.32, respectively.

In the case of `CN(C[C@H]1COC(N)=N1)c1ccc(Br)cc1` [Example 31, (S)-4-{[(4-Bromo-phenyl)-methyl-amino]-methyl}-4,5-dihydro-oxazol-2-ylamine], the pKi is 8.89 on mouse TAAR1 and 8.72 at rat TAAR1. For `CN(C[C@@H]1COC(N)=N1)c1ccc(Cl)c(Cl)c1` [Example 157, (R)-4-{[(3,4-Dichloro-phenyl)-methyl-amino]-methyl}-4,5-dihydro-oxazol-2-ylamine] the same measures were 8.77 and 8.68.

With `CN(C[C@H]1COC(N)=N1)c1cc(Cl)cc(Cl)c1` [Example 160, (S)-4-{[(3,5-Dichloro-phenyl)-methyl-amino]-methyl}-4,5-dihydro-oxazol-2-ylamine], the pKi on mouse TAAR1 was 8.89; at rat TAAR1, 9.05.

Take `CCN(C[C@@H]1COC(N)=N1)c1ccc(F)c(OC)c1` [Example 139, (R)-4-{[Ethyl-(4-fluoro-3-methoxy-phenyl)-amino]-methyl}-4,5-dihydro-oxazol-2-ylamine]: the pKi on mouse TAAR1 was 8.39; at rat TAAR1, 8.80. On to `CCN(C[C@H]1COC(N)=N1)c1ccc(Cl)c(Cl)c1` [Example 33, (S)-4-{[(3,4-Dichloro-phenyl)-ethyl-amino]-methyl}-4,5-dihydro-oxazol-2-ylamine], for which the values for the pKi on mouse TAAR1 and at rat TAAR1 were 8.66 and 9.70, respectively. In the case of `CCN(C[C@H]1COC(N)=N1)c1cccc(-c2cnco2)c1` [Example 106, (S)-4-{[Ethyl-(3-oxazol-5-yl-phenyl)-amino]-methyl}-4,5-dihydro-oxazol-2-ylamine], the pKi on mouse TAAR1 is 8.39; at rat TAAR1, 7.73.

Turning to `CN(C[C@H]1COC(N)=N1)c1ccc(Cl)c(Cl)c1` [Example 7, (S)-4-{[(3,4-Dichloro-phenyl)-methyl-amino]-methyl}-4,5-dihydro-oxazol-2-ylamine], the negative-log Ki (pKi) is 8.85 at mouse TAAR1 and 9.52 at rat TAAR1. For `CC(C)N(C[C@@H]1COC(N)=N1)c1ccc(Cl)cc1` [Example 129, (R)-4-{[(4-Chloro-phenyl)-isopropyl-amino]-methyl}-4,5-dihydro-oxazol-2-ylamine], the pKi at mouse TAAR1 is 8.06; on rat TAAR1 it was 8.57. Turning to `NC1=N[C@@H](CNc2ccc(C(F)(F)F)cc2)CO1` [Example 132, (S)-4-[(4-Trifluoromethyl-phenylamino)-methyl]-4,5-dihydro-oxazol-2-ylamine], the pKi is 8.33 on mouse TAAR1 and 7.61 on rat TAAR1.
